The subject of one test is SK-HEP1. Description: Antitumor activity against human SK-HEP1 cells xenografted BALB/c nu mouse assessed as decrease in tumor volume at 100 mg/kg/day, po measured on the 18th day. It is filed as functional, organism-based. The note with it: time 18.0 day.
The nature of test [1]: Antiproliferative activity against ARID1A/1B proficient human OVISE cells after 7 days by Cell-Titer Glo assay. The test is classed as functional, cell-based. The note with it: 168 h.

Active and inactive are the calls of the source. The rule behind the calls is not given here. Some results are limits rather than exact numbers.

The values below come from ChEMBL document CHEMBL5052855, “Method for predicting sensitivity of cancer cell to gpx4 inhibitor” (2021).

One may read the IC50 as the concentration that inhibits the measured activity by half.

For the molecule `Cc1onc(C(=O)N2CCN(C(c3ccc(Cl)cc3)c3ccc(Cl)cc3)CC2)c1[N+](=O)[O-]`, the result with SK-HEP1 was Active. `COC(=O)c1ccc([C@H]2c3[nH]c4ccccc4c3C[C@H](C(=O)OC)N2C(=O)CCl)cc1`: in test [1], the IC50 was less than 3 nM.
